Results reported in PubChem BioAssay (NCI).
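Compound exposure: 48 hours, 5 concentrations, 96-well plates. The concentration for 50% growth inhibition is given as GI50. TGI marks complete inhibition of growth.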

Assays:
Test in all cases: inhibition of tumour cell growth, NCI panel, 48 h
HT29 colon = system: HT29 colon
UACC-257 melanoma = system: UACC-257 melanoma
T-47D breast = system: T-47D breast
DU-145 prostate = system: DU-145 prostate
SK-OV-3 ovarian = system: SK-OV-3 ovarian
SF-539 CNS = system: SF-539 CNS
ACHN renal = system: ACHN renal
SNB-75 CNS = system: SNB-75 CNS
HCC-2998 colon = system: HCC-2998 colon
UO-31 renal = system: UO-31 renal
PC-3 prostate = system: PC-3 prostate
TK-10 renal = system: TK-10 renal
SK-MEL-5 melanoma = system: SK-MEL-5 melanoma
SF-268 CNS = system: SF-268 CNS
CAKI-1 renal = system: CAKI-1 renal
K-562 leukemia = system: K-562 leukemia
SN12C renal = system: SN12C renal
U251 CNS = system: U251 CNS
RPMI-8226 leukemia = system: RPMI-8226 leukemia
NCI-H23 lung = system: NCI-H23 lung
HL-60(TB) leukemia = system: HL-60(TB) leukemia
EKVX NSCLC = system: EKVX NSCLC
KM12 colon = system: KM12 colon
COLO 205 colon = system: COLO 205 colon
MOLT-4 leukemia = system: MOLT-4 leukemia
IGROV1 ovarian = system: IGROV1 ovarian
NCI-H460 lung = system: NCI-H460 lung
A549 NSCLC = system: A549 NSCLC
SF-295 CNS = system: SF-295 CNS
HOP-92 NSCLC = system: HOP-92 NSCLC
UACC-62 melanoma = system: UACC-62 melanoma
LOX IMVI melanoma = system: LOX IMVI melanoma
MALME-3M melanoma = system: MALME-3M melanoma
HOP-62 NSCLC = system: HOP-62 NSCLC
CCRF-CEM leukemia = system: CCRF-CEM leukemia
786-0 renal = system: 786-0 renal
BT-549 breast = system: BT-549 breast
SR leukemia = system: SR leukemia
MDA-MB-231 breast = system: MDA-MB-231 breast
SK-MEL-2 melanoma = system: SK-MEL-2 melanoma
OVCAR-5 ovarian = system: OVCAR-5 ovarian
MCF7 breast = system: MCF7 breast
HCT-15 colon = system: HCT-15 colon
OVCAR-3 ovarian = system: OVCAR-3 ovarian
OVCAR-8 ovarian = system: OVCAR-8 ovarian
NCI-H226 lung = system: NCI-H226 lung
NCI/ADR-RES ovarian = system: NCI/ADR-RES ovarian
SW-620 colon = system: SW-620 colon
M14 melanoma = system: M14 melanoma
SNB-19 CNS = system: SNB-19 CNS
NCI-H522 lung = system: NCI-H522 lung
MDA-MB-435 = system: MDA-MB-435
OVCAR-4 ovarian = system: OVCAR-4 ovarian
HS 578T breast = system: HS 578T breast
SK-MEL-28 melanoma = system: SK-MEL-28 melanoma
A498 renal = system: A498 renal
RXF 393 renal = system: RXF 393 renal
HCT-116 colon = system: HCT-116 colon

Structure (SMILES): COc1ccc2[nH]c(C(=O)N3CCN(C(=O)OCc4ccc5c(Br)cc(Br)c(O)c5n4)CC3)cc2c1
- GI50 (HT29 colon): 0.318 µM
- TGI (HT29 colon): 1.03 µM
- GI50 (UACC-257 melanoma): 0.447 µM
- TGI (UACC-257 melanoma): 1.4 µM
- GI50 (T-47D breast): 1.35 µM
- TGI (T-47D breast): 4.46 µM
- GI50 (DU-145 prostate): 0.396 µM
- TGI (DU-145 prostate): 1.37 µM
- GI50 (SK-OV-3 ovarian): 1.87 µM
- TGI (SK-OV-3 ovarian): 3.39 µM
- GI50 (SF-539 CNS): 0.926 µM
- TGI (SF-539 CNS): 2.25 µM
- GI50 (ACHN renal): 0.17 µM
- TGI (ACHN renal): 0.335 µM
- GI50 (SNB-75 CNS): 0.735 µM
- TGI (SNB-75 CNS): 2.16 µM
- GI50 (HCC-2998 colon): 0.898 µM
- TGI (HCC-2998 colon): 2.39 µM
- GI50 (UO-31 renal): 0.153 µM
- TGI (UO-31 renal): 0.323 µM
- GI50 (PC-3 prostate): 0.442 µM
- TGI (PC-3 prostate): 1.5 µM
- GI50 (TK-10 renal): 0.306 µM
- TGI (TK-10 renal): 1.01 µM
- GI50 (SK-MEL-5 melanoma): 0.62 µM
- TGI (SK-MEL-5 melanoma): 1.77 µM
- GI50 (SF-268 CNS): 1.2 µM
- TGI (SF-268 CNS): 2.74 µM
- GI50 (CAKI-1 renal): 0.244 µM
- TGI (CAKI-1 renal): 0.749 µM
- GI50 (K-562 leukemia): 0.294 µM
- TGI (K-562 leukemia): 0.978 µM
- GI50 (SN12C renal): 0.313 µM
- TGI (SN12C renal): 1.07 µM
- GI50 (U251 CNS): 1.29 µM
- TGI (U251 CNS): 2.59 µM
- GI50 (RPMI-8226 leukemia): 0.243 µM
- TGI (RPMI-8226 leukemia): 0.809 µM
- GI50 (NCI-H23 lung): 1.48 µM
- TGI (NCI-H23 lung): 3.15 µM
- GI50 (HL-60(TB) leukemia): 0.318 µM
- TGI (HL-60(TB) leukemia): 1.14 µM
- GI50 (EKVX NSCLC): 1.37 µM
- TGI (EKVX NSCLC): 2.93 µM
- GI50 (KM12 colon): 1.37 µM
- TGI (KM12 colon): 2.83 µM
- GI50 (COLO 205 colon): 0.193 µM
- TGI (COLO 205 colon): 0.426 µM
- GI50 (MOLT-4 leukemia): 0.298 µM
- TGI (MOLT-4 leukemia): 0.966 µM
- GI50 (IGROV1 ovarian): 0.368 µM
- TGI (IGROV1 ovarian): 1.36 µM
- GI50 (NCI-H460 lung): 1.36 µM
- TGI (NCI-H460 lung): 3.14 µM
- GI50 (A549 NSCLC): 1.68 µM
- TGI (A549 NSCLC): 3.59 µM
- GI50 (SF-295 CNS): 1.61 µM
- TGI (SF-295 CNS): 3.03 µM
- GI50 (HOP-92 NSCLC): 0.178 µM
- TGI (HOP-92 NSCLC): 0.86 µM
- GI50 (UACC-62 melanoma): 0.258 µM
- TGI (UACC-62 melanoma): 0.749 µM
- GI50 (LOX IMVI melanoma): 0.172 µM
- TGI (LOX IMVI melanoma): 0.334 µM
- GI50 (MALME-3M melanoma): 1.02 µM
- TGI (MALME-3M melanoma): 2.37 µM
- GI50 (HOP-62 NSCLC): 1.59 µM
- TGI (HOP-62 NSCLC): 3.66 µM
- GI50 (CCRF-CEM leukemia): 0.238 µM
- TGI (CCRF-CEM leukemia): 1.63 µM
- GI50 (786-0 renal): 0.27 µM
- TGI (786-0 renal): 0.759 µM
- GI50 (BT-549 breast): 0.213 µM
- TGI (BT-549 breast): 0.585 µM
- GI50 (SR leukemia): 0.243 µM
- TGI (SR leukemia): 1.23 µM
- GI50 (MDA-MB-231 breast): 0.388 µM
- TGI (MDA-MB-231 breast): 1.39 µM
- GI50 (SK-MEL-2 melanoma): 0.577 µM
- TGI (SK-MEL-2 melanoma): 1.55 µM
- GI50 (OVCAR-5 ovarian): 0.603 µM
- TGI (OVCAR-5 ovarian): 1.98 µM
- GI50 (MCF7 breast): 0.262 µM
- TGI (MCF7 breast): 1.18 µM
- GI50 (HCT-15 colon): 0.219 µM
- TGI (HCT-15 colon): 0.596 µM
- GI50 (OVCAR-3 ovarian): 0.197 µM
- TGI (OVCAR-3 ovarian): 0.427 µM
- GI50 (OVCAR-8 ovarian): 0.277 µM
- TGI (OVCAR-8 ovarian): 0.857 µM
- GI50 (NCI-H226 lung): 0.496 µM
- TGI (NCI-H226 lung): 1.05 µM
- GI50 (NCI/ADR-RES ovarian): 0.336 µM
- TGI (NCI/ADR-RES ovarian): 1.76 µM
- GI50 (SW-620 colon): 0.222 µM
- TGI (SW-620 colon): 0.507 µM
- GI50 (M14 melanoma): 0.262 µM
- TGI (M14 melanoma): 0.753 µM
- GI50 (SNB-19 CNS): 1.46 µM
- TGI (SNB-19 CNS): 2.83 µM
- GI50 (NCI-H522 lung): 0.206 µM
- TGI (NCI-H522 lung): 0.546 µM
- GI50 (MDA-MB-435): 0.258 µM
- TGI (MDA-MB-435): 0.695 µM
- GI50 (OVCAR-4 ovarian): 0.302 µM
- TGI (OVCAR-4 ovarian): 0.972 µM
- GI50 (HS 578T breast): 1.05 µM
- TGI (HS 578T breast): 4.29 µM
- GI50 (SK-MEL-28 melanoma): 0.448 µM
- TGI (SK-MEL-28 melanoma): 1.51 µM
- GI50 (A498 renal): 1.58 µM
- TGI (A498 renal): 2.98 µM
- GI50 (RXF 393 renal): 0.208 µM
- TGI (RXF 393 renal): 0.575 µM
- GI50 (HCT-116 colon): 0.178 µM
- TGI (HCT-116 colon): 0.393 µM
